“Also recorded” adds a separate entry of the source. Like-named read-outs stand apart in the source and are kept apart here. Where only a bound is given, the exact number is not on record here.

Series [1] addresses T1, P2Y receptor (taenia coli) (Cavia porcellus, UniProt P59902).
T1 construct: Relaxant responses mediated via P2Y receptors were examined in guinea pig taenia coli; from tissue; host or cells: guinea pig taenia coli (carbachol-contracted)
The settings on record: guinea pig taenia coli, cited from earlier work.

Series [2] deals with T2, adenylyl cyclase linked P2Y receptor (C6 rat glioma cells) (Rattus norvegicus, UniProt Q9EPX4).
T2 construct: endogenous in cells; host or cells: C6 rat glioma cells
Nature of the series: Inhibition of adenylyl cyclase in C6 rat glioma cells. Format: cell-based. The settings on record: versus phospholipase C linked turkey erythrocyte receptor. The method, boiled down:
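C6 cells labelled 2 h with [3H]adenine, preincubated 10 min at 37 °C in HEPES-buffered Eagle's medium (pH 7.5) with 200 μM IBMX. Stimulated 10 min with 10 μM isoproterenol plus varied nucleotide concentrations. Stopped with ice-cold 5% trichloroacetic acid.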

The test system of series [3] is P2Y receptor (aorta endothelium). Description: Relaxation of noradrenalin-contracted rabbit aorta. To be noted: rabbit aorta; log molar units.
A further series concerns P2Y receptors. To be noted: literature; cited from earlier work.
Series [4] has as its target T1, P2Y receptor (taenia coli). Description: Relaxation of carbachol-contracted guinea pig taenia coli. Put shortly: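 Guinea pig taenia coli precontracted with 50 nM carbachol; relaxation to applied P2Y agonists expressed as percentage relaxation against negative log molar agonist concentration.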
A further series relates to P2U receptors. To be noted: literature; cited from earlier work.
Series [5] addresses T3, P2Y receptor (turkey erythrocyte membranes) (Meleagris gallopavo, UniProt P49652).
T3 construct: from tissue; host or cells: washed turkey erythrocytes, ghosts prepared by hypotonic lysis
Description: Stimulation of phospholipase C (inositol phosphate formation) in turkey erythrocyte membranes. Format: biochemical. The settings on record: turkey erythrocyte membranes. The method, boiled down:
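Erythrocytes were labelled 18-24 h at 37 °C with [3H]myoinositol, and ghosts were made by hypotonic lysis. Ghosts (≈175 μg protein) were incubated 5 min at 30 °C in Hepes buffer pH 7.0 with 1 μM GTPγS and nucleotide analogs. Total [3H]inositol phosphates were purified by anion exchange; K0.5 averaged from 3-8 dose-response curves.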

The next series relates to nucleotidases. To be noted: Zimmet et al.; Jacobson et al.; cited from earlier work.
In series [6] the target is P2Y receptor (mesenteric artery). Description: Relaxation of rabbit mesenteric artery. The settings on record: log molar units.
Description: Muscular relaxation/contraction: Relaxant responses mediated via P2Y receptors were examined in guinea pig taenia coli, rabbit aorta, and rabbit mesenteric artery, as described by Hoyle et al. (Br. J. Pharmacol., 107, 367-374 (1992a)), Burnstock et al., (Br. J. Pharmacol., 90, 383-391 (1987a)), and Rubino et al., (Eur. J. Pharmacol., 212, 237-240 (1992)).
Series [7] addresses T4, P2X receptor (urinary bladder) (Cavia porcellus, UniProt A0A286XVA9).
T4 construct: guinea pig isolated urinary bladder detrussor muscle; from tissue; host or cells: guinea pig isolated urinary bladder detrusor muscle
Description: Contraction of guinea pig isolated urinary bladder detrussor muscle. To be noted: guinea pig urinary bladder.

Series [8] has as its target T5, P2X receptor (vas deferens) (Cavia porcellus, UniProt A0A286XVA9).
T5 sequence (A0A286XVA9 1-399): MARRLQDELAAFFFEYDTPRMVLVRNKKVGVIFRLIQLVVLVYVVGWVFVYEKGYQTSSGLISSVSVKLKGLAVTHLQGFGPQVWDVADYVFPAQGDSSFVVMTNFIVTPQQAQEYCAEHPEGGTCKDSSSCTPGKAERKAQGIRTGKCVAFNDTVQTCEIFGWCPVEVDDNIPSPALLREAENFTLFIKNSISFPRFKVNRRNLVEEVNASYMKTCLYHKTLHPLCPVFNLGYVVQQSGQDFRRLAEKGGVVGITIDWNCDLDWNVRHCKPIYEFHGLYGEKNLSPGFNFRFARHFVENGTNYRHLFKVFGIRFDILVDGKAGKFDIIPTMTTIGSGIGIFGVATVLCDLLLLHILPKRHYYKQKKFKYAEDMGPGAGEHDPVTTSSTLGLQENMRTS
Description: Contraction of guinea pig isolated vas deferens.

Series [9] relates to P2X and P2Y receptors. The settings on record: Satchell and Maguire; cited from earlier work.
Series [10] has as its system P2X and P2Y receptors. Nature of the series: Overall activity in the seven P2X and P2Y preparations.
Series [11] has as its target T5, P2X receptor (vas deferens). To be noted: guinea pig vas deferens; log molar units; footnote e: literature data; cited from earlier work.
The test system of series [12] is P2X receptor (vas deferens). The settings on record: Burnstock et al. 1985; cited from earlier work.
The target of series [13] is T6, P2X receptor (saphenous artery) (Oryctolagus cuniculus, UniProt G1U3D6).
T6 construct: and rabbit saphenous artery; from tissue; host or cells: rabbit saphenous artery
T6 sequence (G1U3D6 1-399): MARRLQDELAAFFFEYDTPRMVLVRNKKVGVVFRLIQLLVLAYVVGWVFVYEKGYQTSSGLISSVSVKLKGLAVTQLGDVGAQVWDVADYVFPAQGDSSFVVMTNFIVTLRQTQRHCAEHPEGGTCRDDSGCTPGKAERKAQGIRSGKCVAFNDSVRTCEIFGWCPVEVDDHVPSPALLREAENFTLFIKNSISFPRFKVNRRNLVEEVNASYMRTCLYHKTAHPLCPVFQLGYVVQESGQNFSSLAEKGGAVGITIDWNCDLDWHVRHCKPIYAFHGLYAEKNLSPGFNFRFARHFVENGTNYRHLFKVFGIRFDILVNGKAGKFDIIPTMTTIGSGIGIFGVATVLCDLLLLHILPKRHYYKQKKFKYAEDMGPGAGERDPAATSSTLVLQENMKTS
Nature of the series: Contraction of rabbit saphenous artery. Put shortly:
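Contraction of isolated rabbit saphenous artery, standard organ-bath methods; responses at 10 μM expressed as percentage of contraction produced by 1 μM α,MeATP. Highest analogue concentrations tested were 3-30 […].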

Series [14] deals with T6, P2X receptor (saphenous artery). To be noted: Burnstock et al., 1987a; cited from earlier work.
In series [15] the target is T4, P2X receptor (urinary bladder). To be noted: cited from earlier work.
The mark [16] stands for this setting: mean ± S.E.M. for at least 2 determinations, read-out: phosphatidyl inositol metabolism (K0.5, nM) erythrocyte.

T1 sequence (P59902 whole entry): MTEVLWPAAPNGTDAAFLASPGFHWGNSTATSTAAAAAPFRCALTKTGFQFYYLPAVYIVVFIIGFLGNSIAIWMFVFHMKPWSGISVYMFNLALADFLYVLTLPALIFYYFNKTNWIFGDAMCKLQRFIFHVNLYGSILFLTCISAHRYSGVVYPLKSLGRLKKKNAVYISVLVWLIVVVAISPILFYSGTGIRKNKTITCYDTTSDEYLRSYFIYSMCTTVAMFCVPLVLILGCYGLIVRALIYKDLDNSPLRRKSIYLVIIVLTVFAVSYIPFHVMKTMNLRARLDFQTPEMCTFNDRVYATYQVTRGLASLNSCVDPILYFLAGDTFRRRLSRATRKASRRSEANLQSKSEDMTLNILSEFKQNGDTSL
T3 sequence (P49652 whole entry): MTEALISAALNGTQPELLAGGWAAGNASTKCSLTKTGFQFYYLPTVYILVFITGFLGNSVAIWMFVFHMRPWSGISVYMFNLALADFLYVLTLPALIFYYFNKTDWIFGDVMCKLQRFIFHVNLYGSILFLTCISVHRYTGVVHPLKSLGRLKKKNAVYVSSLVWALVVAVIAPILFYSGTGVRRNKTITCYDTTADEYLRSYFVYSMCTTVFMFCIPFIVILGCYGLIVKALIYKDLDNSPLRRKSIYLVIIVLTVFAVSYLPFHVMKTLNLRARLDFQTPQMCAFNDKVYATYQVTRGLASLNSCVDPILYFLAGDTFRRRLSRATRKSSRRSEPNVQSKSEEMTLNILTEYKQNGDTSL
T2 sequence (Q9EPX4 whole entry): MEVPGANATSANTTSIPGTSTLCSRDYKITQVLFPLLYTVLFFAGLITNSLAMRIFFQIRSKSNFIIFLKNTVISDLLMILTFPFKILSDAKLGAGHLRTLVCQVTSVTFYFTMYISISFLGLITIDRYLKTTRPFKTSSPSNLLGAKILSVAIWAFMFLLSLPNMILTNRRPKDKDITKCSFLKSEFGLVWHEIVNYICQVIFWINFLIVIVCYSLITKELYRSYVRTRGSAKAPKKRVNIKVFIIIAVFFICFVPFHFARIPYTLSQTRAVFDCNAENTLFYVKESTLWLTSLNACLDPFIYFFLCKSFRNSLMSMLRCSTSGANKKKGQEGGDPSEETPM

`CSc1nc(N)c2ncn([C@@H]3O[C@H](COP(=O)(O)OP(=O)(O)OP(=O)(O)O)[C@@H](O)[C@H]3O)c2n1` [2-MeS-ATP, 2-methylthio-ATP]: the “pD2, taenia coli, as reported by Hoyle et al.” value in [1] is reported as 8.0±0.15. In addition, the “selectivity for the adenylyl cyclase linked (C6 cell) receptor” value in [2] was 7.3 -fold. In addition, the “relaxation pD2, aorta” value in series [3] came to 6.8. For the same molecule, the “P2Y receptor affinity/potency, in words” value with P2Y receptors is “high affinity for P2Y receptors; also recorded: One of the most potent known P2Y receptor agonists”. Also, the results for the EC50 in series [4], in [5] (setting [16]) and in series [5] (read-out: K0.5) were 10 nM, 8 ± 2 nM and 8 nM, respectively. The “potency at P2U receptors, in words” value with P2U receptors was “much less potent than ATP at P2U -receptors”. The “stability to nucleotidases, in words” value in the series with nucleotidases is listed as “susceptible to ectonucleotidases”. Further, the “relaxation pD2, mes. artery” value in series [6] stood at 6.5.

For `Nc1ncnc2c1nc(Br)n2[C@@H]1O[C@H](COP(=O)(O)OP(=O)(O)OP(=O)(O)O)[C@@H](O)[C@H]1O` [8-Br-ATP, 8-Bromoadenosine 5'-triphosphate], in series [7], the “activity/potency in words, bladder” value is on record as “limited activity in the urinary bladder”. Also, in series [8], the “activity/potency in words, vas deferens” value was “inactive in the vas deferens”. Also, in the series on P2X and P2Y receptors [9], the “activity at P2 receptors, in words” value was “somewhat active at P2 receptors”. In addition, the “overall activity in words, all preparations” value in the series with P2X and P2Y receptors [10] was “relatively ineffective at the receptors tested in this study”. In addition, the EC50 in series [5] (setting [16]) was found to be 47400 nM.

With `Nc1ncnc2c1ncn2[C@@H]1O[C@H](COP(=O)(O)CP(=O)(O)OP(=O)(O)O)[C@@H](O)[C@H]1O` [a,β-Me-ATP, α,β-methylene-ATP], the “contraction pD2, vas” value in series [11] was 5.3. Also, the “activity in words, vas deferens” value in series [12] is recorded as “a potent constrictor”. In addition, the “activity/potency in words, bladder” value in [7] is “markedly enhanced activity”. Moreover, the “contraction produced by 1 μM, saphenous artery” value in [13] (rabbit saphenous artery, 1 μM) is “half maximal effect”. In addition, the activation at 10 µM in [13] (read-out: response at 10 μM relative to the contraction produced by 1 μM α,MeATP, saph. artery) was 5.9%. Further, the “relaxation pD2, taenia coli” value in series [1] (log molar units, footnote e: literature data) was 5.6. In [8], the “activity/potency in words, vas deferens” value is listed as “markedly enhanced activity”. Besides, the “activity in words, saphenous artery” value in series [14] is given as “a potent constrictor”. Moreover, in series [4] (guinea pig taenia coli), the “activity/potency in words, taenia coli” value was “reduced activity in the taenia coli”. Moreover, the “activity in words, urinary bladder” value in [15] (Burnstock et al. 1985) is on record as “a potent constrictor”. Also, the “contraction pD2, bladder” value in series [15] (guinea pig urinary bladder, log molar units, footnote e: literature data) is recorded as 5.7. For the same molecule, the “activity/potency in words, turkey erythrocyte” value in series [5] is on record as “a very weak, yet full agonist”. For the same molecule, the EC50 in series [5] (setting [16]) is over 100000 nM.
